{"source": "patent US4889855A", "about": "“Heterocyclic compounds and their preparation and use” (priority 1987, dated 1989)", "key": {"quisqualate receptor [1]": {"molecular_target": "quisqualate receptor", "assay": "3H-AMPA binding (Test 1)", "conditions": "displacement of 50% of the specific binding of 3H-AMPA (5 nM), rat cerebral cortical membranes, 0° C., 30 min", "description": "The quisqualate receptor binding activity of the compounds of the present invention can be illustrated by determining their capability for displacing radioactively labelled 2-amino-3hydroxy-5-methyl-4-isoxazolepropionic acid (AMPA) from the quisqualatee type receptors.\nThe displacement activity of the compounds may be shown by determining the IC50 value which represents the concentration (μg/ml) which causes a displacement of 50% of the specific binding of ^3 H-AMPA.\n^3 H-AMPA binding (Test 1)\n500 μl of thawed rat cerebral cortical membrane homogenate in Tris-HCl (30 mM), CaCl2 (2.5 mM) and KSCN (100 mM) pH 7.1 were incubated at 0° C. for 30 min. with 25μl ^3 H-AMPA (5 nM final concentration) and the test compound and buffer. Nonspecific binding was determined by incubation with L-glutamic acid (600 μM final concentration). The binding reaction was terminated by adding 5 ml of ice-cold buffer followed by filtration through Whatman GF/C glass fibre filters and 2×5 ml wash with ice-cold buffer. Bound radioactivity was measured by scintillation counting. IC50 was determined by Hill analysis of at least four concentrations of test compound."}, "NMDA receptor": {"system": "NMDA receptor", "assay": "Inhibition of NMDA stimulated 3H-GABA release from cultured cerebral cortex interneurons (Test 3)", "type": "cell-based", "conditions": "inhibits 50% of NMDA (3 μg/ml) induced 3H-GABA release, mouse cerebral cortex interneurons", "description": "The NMDA antagonistic properties of the compounds is illustrated by determining their capability to antagonize NMDA stimulated ^3 H-GABA release from cultured mouse cortex neurons.\nThe NMDA antagonistic activity of the compounds may be shown by determining the IC50 value, which represents the concentration (μg/ml) which inhibits 50% of NMDA induced ^3 H-GABA release.\nInhibition of NMDA stimulated ^3 H-GABA release from cultured mouse cerebral cortex interneurons (Test 3) Release experiments are performed using the model described by Drejer et al. (Life Sci. 38, 2077 (1986)). To cerebral cortex interneurons cultured in petri dishes (30 mm) are added 100 μg/ml 3-vinyl-GABA one […] before the experiment in order to inhibit degradation of GABA in the neurons. 30 min before the experiment 5 μCi ^3 H-GAGA is added to each culture and after this preloading period the cells are washed twice with a HEPES (N-2 Hydroxyethylpiperazine-N'-2-ethanesulfonic acid) buffered saline (HBS) containing 10 mM HEPES, 135 mM NaCl, 5 mM KCl, 0.6 mM MgSO4, 1.0 mM CaCl2 and 6 mM D-glucose; pH 7 and placed in a superfusion system. This system consists of a peristaltic pump continuously delivering thermostated 37° C. superfusion medium from a reservoir to the top of a slightly-tilted petri dish. The cell monolayer at the bottom of the dish is covered with a piece of nylon mesh to facilitate dispersion of medium over the cell layer. The medium is continuously collected from the lower part of the dish and delivered to a fraction collector. Initially, the cells are superfused with HBS for 15 min (flow rate 2 ml/min). Then cells are stimulated for 30 sec every 4 min by changing the superfusion medium from HBS to a corresponding medium containing NMDA and antagonists according to the following scheme: […]\nstimulation no. 1: 3 μg/ml NMDA stimulation no. 2: 3 μg/ml NMDA+0.3 μg/ml antagonist stimulation no. 3: 3 μg/ml NMDA+3 μg/ml antagonist\nTest substances are dissolved in water or 48% ethanol. The final ethanol concentration in the assay must not exceed 0.1%.\nThe release of ^3 H-GABA in the presence of NMDA (stimulated relase in cpm) are corrected for the mean basal release (cpm) before and after the stimulation.\nThe stimulated release in the presence of antagonists are expressed relative to the stimulated release by NMDA alone and the IC50 value for the antagonist is calculated (the concentration (μg/ml) of the test substance which inhibits 50% of the NMDA induced ^3 H-GABA release) either from a dose response curve or from the formula: [formula] where Co is stimulated release in control assays and Cx is the stimulated release in the test assay (the calculation assumes normal mass-action interaction). 25-75% inhibition of the NMDA stimulation must be obtained, before calculation of IC50."}, "quisqualate receptor [2]": {"system": "quisqualate receptor", "assay": "Antagonism of quisqualic acid induced 22Na+-release from striatal slices (Test 2)", "type": "cell-based", "conditions": "reduces quisqualic acid (2 μg/ml) stimulated 22Na+ efflux by 50%, rat striatal slices", "procedure": "The quisqualate antagonism is measured by determining the EC50 value which represents the concentration which reduces the rate of quisqualic acid stimulated sodium efflux by 50%.\nAntagonism of quisqualic acid induced ^22 Na^+ -release (Test 2)\nSlices from rat striatum were preincubated with ^22 Na^+ for 30 min. After the ^22 Na^+ loading period, the slices were successively and every minute transferred through a series of tubes, each containing 1.5 ml of a non-radioactive physiological solution saturated with O2, with the help of a basket shaped sieve. Quisqualic acid (2 μg/ml) was present in the last 5 tubes and the compound to be tested was present in the same 5 tubes plus 3 tubes before. The amount of radioactivity in each washout tube as well as that left in the slices at the end of the experiment was measured by scintillation counting. EC50 -values were calculated by Hill analysis from at least three different concentrations of test compound as the concentration of test compound which reduces the efflux rate of ^22 Na^+ -ions to 50% of the efflux rate in the absence of test compound."}, "[3]": {"system": "NMDA (N-methyl-D-aspartate) receptors", "conditions": "background; cited from earlier work"}, "quisqualate receptors": {"system": "quisqualate receptors", "conditions": "background; cited from earlier work"}, "kainate receptors": {"system": "kainate receptors", "conditions": "background; cited from earlier work"}}, "data": [{"molecule": "O=[N+]([O-])c1cc2nc(O)c(O)nc2c2c([N+](=O)[O-])cccc12", "note": "[2,3-Dihydroxy-6,10-dinitrobenzo(f)quinoxaline]", "values": [{"measurement": "Test 1 IC50", "setting": "quisqualate receptor [1]", "value": 0.85, "unit": "µg/mL"}, {"measurement": "Test 3 IC50", "setting": "NMDA receptor", "value": 0.97, "unit": "µg/mL"}]}, {"molecule": "Nc1cc2nc(O)c(O)nc2c2ccccc12", "note": "[6-Amino-2,3-dihydroxybenzo(f)quinoxaline]", "values": [{"measurement": "Test 1 IC50", "setting": "quisqualate receptor [1]", "value": 1.1, "unit": "µg/mL"}, {"measurement": "Test 2 EC50", "setting": "quisqualate receptor [2]", "value": 23, "unit": "µg/mL"}]}, {"molecule": "O=[N+]([O-])c1cc2nc(O)c(O)nc2c2ccccc12", "note": "[2,3-Dihydroxy-6-nitrobenzo(f)quinoxaline]", "values": [{"measurement": "Test 1 IC50", "setting": "quisqualate receptor [1]", "value": 0.69, "unit": "µg/mL"}, {"measurement": "Test 3 IC50", "setting": "NMDA receptor", "value": 0.39, "unit": "µg/mL"}, {"measurement": "Test 2 EC50", "setting": "quisqualate receptor [2]", "value": 14, "unit": "µg/mL"}]}, {"molecule": "N[C@H](CCCC(=O)O)C(=O)O", "note": "[D-2-amino-adipic acid]", "values": [{"measurement": "antagonist activity on NMDA receptors", "setting": "[3]", "value": "moderate antagonist activity"}]}, {"molecule": "O=[N+]([O-])c1cc2nc(O)c(O)nc2c2cccnc12", "note": "[2,3-Dihydroxy-6-nitropyrido(2,3-f)quinoxaline]", "values": [{"measurement": "Test 1 IC50", "setting": "quisqualate receptor [1]", "value": 0.61, "unit": "µg/mL"}, {"measurement": "Test 3 IC50", "setting": "NMDA receptor", "value": 1.5, "unit": "µg/mL"}]}, {"molecule": "O=[N+]([O-])c1cc2nc(O)c(O)nc2c2c1CCCC2", "note": "[7,8,9,10-Tetrahydro-2,3-dihydroxy-6-nitrobenzo(f)quinoxaline]", "values": [{"measurement": "Test 1 IC50", "setting": "quisqualate receptor [1]", "value": 0.17, "unit": "µg/mL"}, {"measurement": "Test 3 IC50", "setting": "NMDA receptor", "value": 0.092, "unit": "µg/mL"}]}, {"molecule": "O=[N+]([O-])c1cccc2c1c([N+](=O)[O-])cc1nc(O)c(O)nc12", "note": "[2,3-Dihydroxy-6,7-dinitrobenzo(f)quinoxaline]", "values": [{"measurement": "Test 1 IC50", "setting": "quisqualate receptor [1]", "value": 0.06, "unit": "µg/mL"}, {"measurement": "Test 3 IC50", "setting": "NMDA receptor", "value": 0.3, "unit": "µg/mL"}, {"measurement": "Test 2 EC50", "setting": "quisqualate receptor [2]", "value": 2.8, "unit": "µg/mL"}]}, {"molecule": "N[C@H](CCCP(=O)(O)O)C(=O)O", "note": "[D-APV, 2-amino-5-phosphono-valeric acid]", "values": [{"measurement": "antagonist activity on NMDA receptors", "setting": "[3]", "value": "most potent and selective antagonists"}]}, {"molecule": "N[C@@H](CCC(=O)O)C(=O)O", "note": "[L-glutamic acid]", "values": [{"measurement": "agonist activity on quisqualate receptors", "setting": "quisqualate receptors", "value": "potent agonists"}]}, {"molecule": "N[C@H](CCCCCP(=O)(O)O)C(=O)O", "note": "[D-APH, 2-amino-7-phosphonoheptanoic acid]", "values": [{"measurement": "antagonist activity on NMDA receptors", "setting": "[3]", "value": "most potent and selective antagonists"}]}, {"molecule": "O=[N+]([O-])c1cccc2c(Br)cc3nc(O)c(O)nc3c12", "note": "[6-bromo-2,3-dihydroxy-10-nitrobenzo(f)quinoxaline]", "values": [{"measurement": "Test 1 IC50", "setting": "quisqualate receptor [1]", "value": 9.2, "unit": "µg/mL"}, {"measurement": "Test 3 IC50", "setting": "NMDA receptor", "value": 0.25, "unit": "µg/mL"}]}, {"molecule": "N[C@H](CCC[C@H](N)C(=O)O)C(=O)O", "note": "[diaminopimelic acid]", "values": [{"measurement": "antagonist activity on NMDA receptors", "setting": "[3]", "value": "moderate antagonist activity"}]}, {"molecule": "CCOC(=O)CCC(N)C(=O)OCC", "note": "(stereo not drawn) [GDEE, Glutamic acid diethyl esteer]", "values": [{"measurement": "antagonist activity at quisqualate receptors", "setting": "quisqualate receptors", "value": "selective but very weak antagonist"}, {"measurement": "antagonism / selectivity at kainate receptors", "setting": "kainate receptors", "value": "relatively insensitive to antagonism"}]}, {"molecule": "N[C@@H](Cn1oc(=O)[nH]c1=O)C(=O)O", "note": "[quisqualic acid]", "values": [{"measurement": "agonist activity on quisqualate receptors", "setting": "quisqualate receptors", "value": "activated selectively"}]}, {"molecule": "N[C@@H](CCS(=O)(=O)O)C(=O)O", "note": "[L-homocysteic acid]", "values": [{"measurement": "agonist activity on NMDA receptors", "setting": "[3]", "value": "strong to moderate agonist activity"}]}, {"molecule": "N[C@H](C(=O)O)c1cc(=O)[nH]o1", "note": "[Ibotenic acid]", "values": [{"measurement": "agonist activity on NMDA receptors", "setting": "[3]", "value": "strong to moderate agonist activity"}]}, {"molecule": "N[C@H](CCC(=O)O)C(=O)O", "note": "[D-glutamic acid]", "values": [{"measurement": "agonist activity on NMDA receptors", "setting": "[3]", "value": "strong to moderate agonist activity"}]}, {"molecule": "N[C@@H](CCC(=O)NCC(=O)O)C(=O)O", "note": "[3-glutamyl-glycine]", "values": [{"measurement": "antagonism / selectivity at kainate receptors", "setting": "kainate receptors", "value": "some selectivity for kainate receptors"}]}, {"molecule": "Cc1onc(O)c1CC(N)C(=O)O", "note": "(stereo not drawn) [AMPA, 2-amino-3-hydroxy-5-methyl-4-isoxazolepropionic acid]", "values": [{"measurement": "agonist activity on quisqualate receptors", "setting": "quisqualate receptors", "value": "potent agonists"}]}, {"molecule": "O=C(O)[C@@H]1CCCN[C@H]1C(=O)O", "note": "(relative stereo) [trans-2,3-PDA, trans-2,3-piperidine dicarboxylic acid]", "values": [{"measurement": "agonist activity on NMDA receptors", "setting": "[3]", "value": "strong to moderate agonist activity"}]}]}
